Source: patent publication US8268854B2, “Aza-beta-carbolines and methods of using same” (The UWM Research Foundation, Inc., priority 2008, dated 2012)

Experiments:
GABAA receptor = experiment: PDSP radioligand binding assay (Example 6); details: Example 6, written in present tense
Experimental: Primary and secondary radioligand binding assays are performed. In general, the primary assay is run at very high ligand (compound) concentration as a broad screen to determine whether a compound binds to a particular receptor. If greater than 50% inhibition at 10 μM (high concentration of compound) at a particular receptor is determined, a secondary assay is performed on that receptor. Data from the secondary assay is the binding affinity (Ki value).
A solution of the compound to be tested is prepared as a 1 mg/ml stock in Standard Binding Buffer or dimethyl sulfoxide (DMSO) according to its solubility. A similar stock of a reference compound (positive control) is also prepared. […]
The 250 μL reactions are incubated at room temperature and shielded from light (to prevent photolysis of light-sensitive ligands) for 1.5 hours, then harvested by rapid filtration onto Whatman GF/B glass fiber filters pre-soaked with 0.3% polyethyleneimine using a 96-well Brandel harvester. […] The tubes are capped, labeled, and counted by liquid scintillation counting. For higher throughput assays, bound radioactivity is harvested onto 0.3% polyethyleneimine-treated, 96-well filter mats using a 96-well Filtermate harvester. The filter mats are dried, then scintillant is melted onto the filters, and the radioactivity retained on the filters is counted in a Microbeta scintillation counter. […]

[1] = tested on: BzR/GABAa-ergic receptors; details: Example 8, written in present tense
[2] = molecular target: T1, GABAA receptor α1 subtype with β2 and γ2 subunits (Homo sapiens, UniProt P14867+P18507); experiment: Competition binding assay with [3H]flunitrazepam; details: [3H]flunitrazepam, α1β2γ2, HEKT cells; read-out: GABAA RECEPTOR BINDING α1
T1 construct: expressed in transfected cells; host or cells: HEKT cell line, transient transfection with Fugene 6
Description: (§1) Bound radioactivity is quantified by liquid scintillation counting.

[3] = molecular target: T2, GABAA receptor α2 subtype with β2 and γ2 subunits (Homo sapiens, UniProt P18507+P47869); experiment: Competition binding assay with [3H]flunitrazepam; details: [3H]flunitrazepam, α2β2γ2, HEKT cells; read-out: GABAA RECEPTOR BINDING α2
T2 construct: expressed in transfected cells; host or cells: HEKT cell line, transient transfection with Fugene 6
Description: as §1

[4] = molecular target: T3, GABAA receptor α3 subtype with β2 and γ2 subunits (Homo sapiens, UniProt P18507+P34903); experiment: Competition binding assay with [3H]flunitrazepam; details: [3H]flunitrazepam, α3β2γ2, HEKT cells; read-out: GABAA RECEPTOR BINDING α3
T3 construct: expressed in transfected cells; host or cells: HEKT cell line, transient transfection with Fugene 6
Description: as §1

[5] = molecular target: T4, GABAA receptor α5 subtype with β2 and γ2 subunits (Homo sapiens, UniProt P18507+P31644); experiment: Competition binding assay with [3H]flunitrazepam; details: [3H]flunitrazepam, α5β2γ2, HEKT cells; read-out: GABAA RECEPTOR BINDING α5
T4 construct: expressed in transfected cells; host or cells: HEKT cell line, transient transfection with Fugene 6
Description: as §1

Compound | binding to GABAA receptor (in words) (GABAA receptor) | binding to the BzR/GABAa-ergic receptors (in words) [1] | Ki [2] [nM] | Ki [3] [nM] | Ki [4] [nM] | Ki [5] [nM]
tert-Butyl pyridine[4′,5′-4,5]pyrrolo[3,2-c]pyridine-8-carboxylate [Compound 1] | shown to bind to GABAA receptor | potently binds | – | – | – | –
CC(C)(C)OC(=O)c1cc2c(cn1)[nH]c1cnccc12 [Compound 3, Tert-Butyl pyridine[4′,5′-5,4]pyrrolo[2,3-c]pyridine-3-carboxylate] | shown to bind to GABAA receptor | – | 2.9 | 2.5 | 3.4 | 3.7
